The source of these data is ChEMBL document CHEMBL4823254, “Tetrahydroquinoline-Capped Histone Deacetylase 6 Inhibitor SW-101 Ameliorates Pathological Phenotypes in a Charcot-Marie-Tooth Type 2A Mouse Model” (J Med Chem, 2021).

Activity calls are given as the source filed them.

Data set [1] is described as follows: Genotoxicity in Salmonella typhimurium TA1535 at 5 to 100 uM in absence of liver S9 fraction by Ames test. Type of data set: toxicity. The settings on record: salmonella enterica subsp. enterica serovar typhimurium, s9, 100 µM; dose 5-100 µM. Background: In the Ames test, an excess of revertant colonies over the control signals mutagenicity.
A short description of data set [2]: Genotoxicity in Salmonella typhimurium TA1537 at 5 to 100 uM in absence of liver S9 fraction by Ames test. In kind it is toxicity. The settings on record: salmonella enterica subsp. enterica serovar typhimurium, s9, 100 µM; dose 5-100 µM.
The next data set deals with T1, Histone deacetylase 11 (Homo sapiens, UniProt Q96DB2).
T1 sequence (Q96DB2 whole entry): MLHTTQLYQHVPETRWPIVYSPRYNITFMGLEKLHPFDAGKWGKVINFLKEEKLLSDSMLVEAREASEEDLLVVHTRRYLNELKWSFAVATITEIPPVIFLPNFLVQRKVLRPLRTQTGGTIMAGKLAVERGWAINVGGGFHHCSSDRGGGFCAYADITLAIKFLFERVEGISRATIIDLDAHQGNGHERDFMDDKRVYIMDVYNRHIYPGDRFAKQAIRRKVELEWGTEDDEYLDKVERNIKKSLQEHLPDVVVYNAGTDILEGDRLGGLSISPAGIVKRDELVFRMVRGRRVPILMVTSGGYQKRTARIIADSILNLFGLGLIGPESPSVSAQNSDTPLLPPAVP
Kind of data set: Inhibition of recombinant human HDAC11 expressed in HEK293T/17 cells using Boc-Lys(TFA)-AMC as substrate preincubated for 10 mins followed by substrate addition and measured after 30 mins by fluorescence-based assay.

For data set [3], the target named is T2, Protein deacetylase HDAC6 (Mus musculus) (UniProt Q9Z2V5).
T2 sequence (whole entry): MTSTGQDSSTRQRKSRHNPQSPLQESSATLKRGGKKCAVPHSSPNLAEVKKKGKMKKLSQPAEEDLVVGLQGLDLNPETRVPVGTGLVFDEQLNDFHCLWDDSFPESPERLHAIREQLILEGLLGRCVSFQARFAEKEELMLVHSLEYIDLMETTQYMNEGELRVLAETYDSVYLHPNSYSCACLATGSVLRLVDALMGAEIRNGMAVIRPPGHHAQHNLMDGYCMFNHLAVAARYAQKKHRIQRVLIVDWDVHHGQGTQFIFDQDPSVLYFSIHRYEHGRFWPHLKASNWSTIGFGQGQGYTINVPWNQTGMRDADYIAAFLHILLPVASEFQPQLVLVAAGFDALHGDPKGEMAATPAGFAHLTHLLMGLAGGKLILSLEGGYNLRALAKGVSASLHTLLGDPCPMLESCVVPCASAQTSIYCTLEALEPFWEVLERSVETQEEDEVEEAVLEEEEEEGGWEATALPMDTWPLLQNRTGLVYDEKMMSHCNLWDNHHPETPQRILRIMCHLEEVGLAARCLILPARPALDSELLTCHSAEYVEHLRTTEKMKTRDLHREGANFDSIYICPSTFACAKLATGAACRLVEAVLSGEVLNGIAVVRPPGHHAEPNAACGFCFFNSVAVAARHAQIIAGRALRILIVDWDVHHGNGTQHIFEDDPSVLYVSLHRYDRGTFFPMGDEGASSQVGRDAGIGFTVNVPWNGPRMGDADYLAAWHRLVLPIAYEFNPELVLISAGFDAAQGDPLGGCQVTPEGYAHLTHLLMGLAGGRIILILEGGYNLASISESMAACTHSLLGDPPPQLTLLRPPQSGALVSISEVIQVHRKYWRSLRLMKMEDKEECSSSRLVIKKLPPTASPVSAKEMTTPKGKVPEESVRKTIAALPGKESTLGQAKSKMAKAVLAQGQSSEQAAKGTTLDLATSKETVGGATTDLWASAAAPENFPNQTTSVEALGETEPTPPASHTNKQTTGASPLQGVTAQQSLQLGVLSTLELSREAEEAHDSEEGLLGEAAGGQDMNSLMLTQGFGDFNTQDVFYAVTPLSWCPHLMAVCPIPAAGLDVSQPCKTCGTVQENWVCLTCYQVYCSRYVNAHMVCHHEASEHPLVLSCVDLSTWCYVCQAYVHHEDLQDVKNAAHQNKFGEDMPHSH
The data set can be described thus: In vivo inhibition of HDAC6 in wild type mouse assessed as increase in alpha-tubulin acetylation in sciatic nerve tissue at 10 to 20 mg/kg, ip measured after 6 hrs by immunoblot analysis relative to control. To be noted: dose 10-20 mg/kg. More on the design: scale not given: the % may be the effect or the level left. Type of data set: functional, organism-based. For orientation: Immunoblotting shows a protein as a band on a membrane.

For the next data set, the system named is Mus musculus. Kind of data set: Neuroprotective activity in hMFN2-induced CMT2A transgenic mouse model assessed as increase in paw withdrawal threshold at 20 mg/kg, ip qd administered when treated prior with compound dissolved in PBS/PEG400/Tween80/EtOH (50/35/10/5) wt% as vehicle by von Frey test. In kind it is functional, organism-based.
The nature of data set [4]: Half life in C57BL/6J mouse plasma at 15 mg/kg, ip. Type of data set: ADME, organism-based.
The nature of data set [5]: Genotoxicity in Salmonella typhimurium TA100 at 5 to 100 uM in absence of liver S9 fraction by Ames test. In kind it is toxicity. The settings on record: salmonella enterica subsp. enterica serovar typhimurium, s9, 100 µM; dose 5-100 µM.
Data set [6] in a line: Cmax in C57BL/6J mouse plasma at 15 mg/kg, ip. Type of data set: ADME, organism-based. On the set-up: route intraperitoneal, dose 15 mg/kg.
A short description of data set [7]: Genotoxicity in Salmonella typhimurium TA1535 at 5 to 100 uM in presence of liver S9 fraction by Ames test. Type of data set: toxicity. The settings on record: salmonella enterica subsp. enterica serovar typhimurium, s9, 100 µM; dose 5-100 µM.
Data set [8] in a line: Toxicity in mouse assessed as adverse effect at 10 to 20 mg/kg, ip administered for 3 days every 12 hrs. Type of data set: organism-based. The settings on record: in vivo, 72 h, dose 10-20 mg/kg, time 3 day.
A further data set deals with Histone deacetylase 3 (Homo sapiens, UniProt O15379). The data set can be described thus: Inhibition of recombinant human HDAC3 using Ac-GAK(Ac)-AMC as substrate preincubated for 10 mins followed by substrate addition and measured after 30 mins by fluorescence-based assay.
Histone deacetylase 3, sequence (O15379 whole entry): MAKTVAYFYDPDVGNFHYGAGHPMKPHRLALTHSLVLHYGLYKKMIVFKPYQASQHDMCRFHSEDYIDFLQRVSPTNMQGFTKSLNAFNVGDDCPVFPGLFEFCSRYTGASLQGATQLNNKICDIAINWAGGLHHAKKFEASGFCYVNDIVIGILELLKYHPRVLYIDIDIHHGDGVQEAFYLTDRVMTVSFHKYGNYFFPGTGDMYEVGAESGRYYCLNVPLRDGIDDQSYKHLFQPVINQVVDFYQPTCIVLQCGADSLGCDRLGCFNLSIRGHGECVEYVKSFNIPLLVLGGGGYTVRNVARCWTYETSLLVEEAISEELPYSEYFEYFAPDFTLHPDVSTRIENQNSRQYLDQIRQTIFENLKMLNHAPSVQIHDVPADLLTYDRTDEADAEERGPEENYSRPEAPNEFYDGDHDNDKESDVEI
Data set [9] can be described thus: Total AUC (0 to infinity) in C57BL/6J mouse plasma at 15 mg/kg, ip. In kind it is ADME, organism-based. More on the design: route intraperitoneal, time AUCmax, dose 15 mg/kg.
In a further data set the target is hERG (KCNH2) (Homo sapiens, UniProt Q12809). The data set can be described thus: Inhibition of human ERG expressed in CHO cells at 10 uM by automated patch clamp method relative to control. To be noted: CHO cells expressing human ERG. Type of data set: cell-based.
hERG (KCNH2), sequence (Q12809 whole entry): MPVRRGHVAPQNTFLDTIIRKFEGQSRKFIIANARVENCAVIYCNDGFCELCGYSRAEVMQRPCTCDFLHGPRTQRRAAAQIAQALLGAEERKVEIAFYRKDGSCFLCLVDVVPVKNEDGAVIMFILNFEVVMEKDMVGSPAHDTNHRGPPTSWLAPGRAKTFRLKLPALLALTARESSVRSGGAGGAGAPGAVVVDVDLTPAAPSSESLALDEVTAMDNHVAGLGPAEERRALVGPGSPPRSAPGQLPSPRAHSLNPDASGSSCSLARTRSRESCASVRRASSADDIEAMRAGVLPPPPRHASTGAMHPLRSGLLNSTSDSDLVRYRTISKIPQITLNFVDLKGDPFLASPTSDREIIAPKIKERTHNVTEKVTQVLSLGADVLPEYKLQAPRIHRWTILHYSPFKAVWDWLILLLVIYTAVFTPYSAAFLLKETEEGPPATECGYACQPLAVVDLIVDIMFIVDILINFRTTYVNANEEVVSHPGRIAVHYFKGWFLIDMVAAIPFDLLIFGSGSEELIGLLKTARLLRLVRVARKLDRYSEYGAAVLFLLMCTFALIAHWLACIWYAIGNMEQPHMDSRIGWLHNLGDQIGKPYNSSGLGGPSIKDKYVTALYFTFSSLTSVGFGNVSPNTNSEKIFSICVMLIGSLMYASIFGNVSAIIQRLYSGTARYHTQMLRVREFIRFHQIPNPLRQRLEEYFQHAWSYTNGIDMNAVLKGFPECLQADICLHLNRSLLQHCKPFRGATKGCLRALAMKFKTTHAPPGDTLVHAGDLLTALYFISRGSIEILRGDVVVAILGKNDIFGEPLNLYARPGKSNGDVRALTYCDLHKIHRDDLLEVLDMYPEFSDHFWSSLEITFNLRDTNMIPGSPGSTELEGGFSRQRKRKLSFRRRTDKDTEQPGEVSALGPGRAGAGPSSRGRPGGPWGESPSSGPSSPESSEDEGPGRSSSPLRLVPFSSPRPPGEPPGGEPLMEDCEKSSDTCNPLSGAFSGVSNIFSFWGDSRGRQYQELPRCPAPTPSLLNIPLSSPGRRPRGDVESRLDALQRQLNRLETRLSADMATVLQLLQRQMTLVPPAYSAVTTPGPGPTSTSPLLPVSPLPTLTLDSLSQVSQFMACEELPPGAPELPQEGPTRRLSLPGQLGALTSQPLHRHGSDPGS

With `NC(=O)c1ccc2c(c1)CCCN2Cc1ccc(C(=O)NO)cc1`, the Activity result in data set [1] is “Non-Toxic”; in data set [2] it was “Non-Toxic”; in data set [3], 150%; in data set [5], “Non-Toxic”; in data set [7], “Non-Toxic”; in [8] it was “Non-Toxic”. Moreover, the IC50 – broadly, the concentration at which inhibition is half-maximal – was 5.31 µM at Histone deacetylase 11 and 235 nM on Histone deacetylase 3. In the data set with Mus musculus, the result was Active. In addition, the half-life (as a rule, how long it takes for the measured level to halve) in [4] was 26.4 min. For the same compound, the concentration in data set [6] peaked (Cmax) at 3580 ng/mL. Further, the total exposure AUC(0-inf) (in general, total exposure, with the tail of the curve extrapolated) in data set [9] came to 1750 ng·h/mL. The inhibition – broadly, the relative decrease from the control value, in per cent – at 10 µM against hERG (KCNH2) amounted to 30%.
